Measured values reported in PMC12973313 (Chemical Science, 2026).
Where two headings read alike, the source gives them in different places.

Legend:
[1] = Bi-directional permeability in Caco-2 cell line; assay type: in vitro ADME; settings: human; for Papp B→A at 2 h, 5 µM: Caco-2, pH 7.4, 5 µM, basolateral to apical; for recovery at 2 h, 5 µM: Caco-2, pH 7.4, after 2 hours; for Papp A→B at 2 h, 5 µM: apical to basolateral
Source text: Next, to gauge the suitability of SSAs for oral dosing, 9 was subjected to a Caco-2 permeability assay which is used to both predict human intestinal permeability and investigate drug efflux, predicting in vivo compound absorption. This assay allows assessment of a compound's ability to undergo transport from the apical to the basolateral (A–B) compartments of the cell monolayer and vice versa (B–A). […] This is likely to result in poor absorption when dosed orally and therefore further development would be necessary for these agents to become suitable for oral administration. […]
The ionspray voltage was 5500V.
Bi-directional Permeability in Caco-2 Cell Line:
The bi-directional permeability in Caco-2 cell lines was determined by seeding cells onto an HTS Transwell plate. Cells were cultivated for 14-18 days in a cell culture incubator at 37°C, 5% CO2, 95% relative humidity. Cell culture medium was replaced every other day. To assess monolayer integrity the transepithelial electrical resistance (TEER) across the monolayer was measured using Millicell Epithelial volt-ohm meter prior to assay and Lucifer yellow (LY) fluorescence measurement post-assay.
Test compound was prepared in DMSO and diluted in Hank’s Balanced Saline Solution (HBSS, pH 7.4) to a final concentration of 5 µM. Compound was added to the donor compartment of the transwell plate for both apical to basolateral (A>B) and basolateral to apical (B>A) measurements, with blank HBSS being added to the receiver compartment. The transwell plate was then incubated at 37°C, 5% CO2 for 2 hours.
Samples were taken at T=0 and T=2 hours determine the concentration of initial donor sample, and the concentration of receiver and donor wells post-incubation, respectively.
The samples were quenched with solvent containing internal standard (IS). The supernatant was mixed with an appropriate volume of ultra-pure water before LC-MS/MS analysis.
Samples were analysed using a Shimadzu Nexera LC Binary Gradient LC-30AD (Shimadzu Inc, Kyoto), coupled to a Sciex 6500+ (AB Inc., Illinois). Separation of compounds was achieved using a HALO 90Å biphenyl (2.7µm,2.1x50mm) (Advanced Materials Technology, Wilmington) column at a temperature of 40°C. A binary mobile phase gradient at a flow rate of 0.7 mL/min was used. Initial LC conditions comprised of 95% solvent A (0.1% formic acid in water) and 5% solvent B (0.1% formic acid in acetonitrile). This was ramped to 95% solvent B at 0.7 minutes, held for 0.5 minutes and then immediately returned to initial conditions. Sample analysis was by electrospray ionisation combined with multiple reaction monitoring in positive ion mode. The ion spray voltage was 5500V.
In vitro Absorption, Distribution and Metabolism results
Table S1 – Result from solubility assays performed in PBS pH 7.4 for SSA 9.
Table S2 – Summary of results from Caco-2 permeability assays for SSA 9. Papp is given as […]
cm/s. A = apical; B = basolateral. Recovery = % SSA recovered from the assay after 2 hours.
ID Papp (A-B) % Recovery Papp (B-A) % Recovery Efflux Ratio
Table S3 – Summary of results from human plasma protein binding assays for SSA 9. % Bound = % of SSA bound to the plasma proteins after 6 hours incubation at 37 °C. Low % […]
= > 99 %. % Recovery = % SSA recovered from the assay after 6 hours.
ID % Bound % Recovery % Stability
Table S4 – Summary of results from mouse, rat and human microsomal stability assays for SSA 9. The in vitro half-life (t1/2) and microsomal intrinsic clearance (CLint) were calculated from the elimination rate (k, the slope of the natural log of concentration verses time curve), assuming first order kinetics, using the formulae t1/2 = 0.693/-k and CLint = 0.693/t1/2 […]. This compound would be classed as a low clearance compound in all three species. […]

[2] = test system: A2780 CisR cisplatin resistant ovarian cancer cells; assay: GI50 determination, SRB assay; assay type: cell-based, human; settings: 96 hours; read-out: Mean GI50 (μM) A2780 CisR SRB Assays
Procedure: (§1) GI50 determination assays
(§2) Cell culture: The RPE-1 retinal pigment epithelial, A2780 human ovarian carcinoma, and A2780 CisR cisplatin resistant human ovarian carcinoma cell lines were donated with thanks from the Institute of Cancer Research. The A2780 and A2780 CisR cell lines were cultured in IMDM supplemented with 10 % FBS at 37 °C and 5 % CO2, while the RPE-1 cell line was cultured in a 1:1 mixture of Dulbecco's Modified Eagle Medium and Ham’s F-12 Nutrient Mixture (DMEM/F-12) at 37 °C and 5 % CO2.
(§3) SRB assay: Cells were seeded into 96-well plates at 800 cells per well/cpw (A2780), 1600 cpw (A2780 CisR) or 400 cpw (RPE-1) in cell culture medium and cultured for 48 hours followed by addition of each compound over an eight-point concentration range (each concentration in triplicate). Plates were then cultured for a further 96 hours, after which the cell culture […]
(§4) medium was removed from each well and the cells fixed with addition of 70 µL/well of 10 % (w/v) trichloroacetic acid (TCA) in distilled water followed by incubation for 30 minutes at RT.
(§5) Each plate was then washed with distilled water five times before addition of 70 µL SRB dye (0.4 % (w/v) SRB dye (ThermoFisher Scientific, USA) solubilised in 1 % (v/v) acetic acid/ dH2O) and incubat ed for 30 minutes at RT, followed by washing three times with 1 % (v/v) acetic acid and drying in a 37 °C oven overnight. Once dry, 100 μl of 10 mM Tris -base (ThermoFisher Scientific, USA) was added to each well and plates put on a microplate shaker for 10 minutes at 200 rpm to solubilize the dye. Absorbance values were then read at wavelength 490 nm on a Victor X4 multi-label plate reader (PerkinElmer Life Sciences, USA), data analysed using Microsoft Excel and graphs produced using GraphPad Prism 9.0 and the GI50 value calculated.
(§6) Solutions and compo und preparation: All solvents and starting materials were purchased from known chemical suppliers. Compound stock solutions were prepared in DMSO. Buffer […]
(§7) 500 mM. Buffer B consisted of Na2SO4 (167 mM) and NaOAc (5 mM) with a pH of 5.5 and an ionic strength of 500 mM.
(§8) Vesicle formation: Giant unilamellar Vesicles (GUVS) were prepared through the electro formation method using a Nanion VesiclePrepPro. A solution of 1,2-diphytanoyl-sn-glycero-3-phosphocholine (DPhPC) (10 mM) with 10 % cholesterol in chloroform (20 µL) was deposited onto an ITO coated glass surface (surface coated glass slide) and allowed to evaporate to create a dehydrated thin lipid film. A greased O-ring was then placed around the dehydrated lipid film to create a seal. This volume was then filled with a sucrose solution (275 µL, 200 mM) and then sealed with a second ITO coated glass slide. An AC current (3 V/5 Hz) was then applied. After 2 hrs, the voltage and frequency were reduced in steps over 30 mins to 1.6 V/1 Hz and held for 1 hr before being reduced to 0 V/0 Hz over a further 30 min […]
(§9) Patch clamp measurements: Experiments were performed using a Port-a-Patch system (Nanion Technologies) with borosilicate glass chips that contain an aperture diameter of approximately 1 µm. Buffer A (5 µL) was placed on the underside of the chip over the aperture, The chip was then placed into the port-a-patch system. Buffer A (15 µL) was then added to the top of the chip and 5 µL of the GUV stock solution added. The GUVS were the positioned over the aperture in the chip by application of negative pressure (-30 mbar).
(§10) When a GUV is positioned over the aperture in the chip, it bursts, leaving a planar bilayer as a seal. The negative pressure is then removed, leaving the planar bilayer in place over the aperture. The external buffer A was the exchanged with buffer B, through four simultaneous […]
(§11) buffer exchanges (4 x 15 µL). […]
(§12) = 30 s, to give a final experimental concentration of 0.1 – 1 mM as appropriate. The number of sweeps was set to 1000, the sweep interval to 0.00 s, sample interval to 1.00 ms and the protocol was run for a total of 5 mins. Each experiment was repeated a minimum of three time to ensure reproducibility.

[3] = test system: A2780 ovarian cancer cells; assay: GI50 determination, SRB assay; assay type: cell-based, human; settings: 96 hours; read-out: Mean GI50 (μM) A2780 SRB Assays
Procedure: as §1, §2, §3, §4, §5, §6, §7, §8, §9, §10, §11, §12

RPE-1 cells = assay: GI50 determination, SRB assay; assay type: cell-based, human; settings: 96 hours; read-out: Mean GI50 (μM) RPE-1 SRB Assays
Procedure: as §1, §2, §3, §4, §5, §6, §7, §8, §9, §10, §11, §12

[4] = Plasma protein binding, equilibrium dialysis; assay type: in vitro ADME, human; settings: pH 7.4; human plasma, after 6 hours
Procedure: This allows an assessment of the free drug concentration available to distribute into the tissues and interact with the target. The extent to which a compound binds to the constituents of blood plasma can influence drug distribution. […] page 10: In vitro Absorption, Distribution and Metabolism studies General note: These studies were performed by Contract Research Organisation (CRO) Pharmaron. The methodology provided within the ESI is published within the express permission of this organisation. The percentage of a compound recovered during the […] limitations such as unintended potential non-specific binding events to experimental equipment, solubility issues, etc. Protein Binding measurements in human plasma by using equilibrium dialysis: The fraction unbound in human plasma (P-KB, Ltd People's hospital of Shandong) was measured using 96-well Equilibrium Dialysis Plate (HTDialysis LLC, Gales Ferry, CT). Human plasma containing 5 μM test compound was dialysed against dialysis buffer (PBS, pH 7.4) with initial samples taken to allow for assessment of plasma stability and recovery before the plate was incubated for 6 hours at 37°C at 5% CO2. Samples were removed at 6 hours, and all samples were matrix matched and quenched with acetonitrile containing internal standard. Samples were centrifuged at 3,220g for 30 minutes to precipitate protein and enable sampling of supernatant prior to appropriate dilution for liquid chromatography mass-spectrometry (LC-MS/MS) analysis. Samples were analysed using a Shimadzu Nexera LC Binary Gradient LC-30AD (Shimadzu Inc, Kyoto), coupled to a Sciex 6500+ (AB Inc., Illinois). Separation was achieved using a XSelect HSS T3 (2.5μm, 2.1 x 50 mm) (Waters Ltd., Wilmslow) column at a temperature of 40°C and a binary mobile phase gradient at a flow rate of 0.8 mL/min. Initial LC conditions comprised of […] was ramped to 98% B at 0.5 min, held for 0.4 min and then immediately returned to initial conditions. Sample analysis was by electrospray ionisation in combined with multiple reaction monitoring in positive ionisation mode. The ionisation voltage was +5500 V. Kinetic Solubility Determination in PBS pH 7.4: The stock solutions of test and control compounds were prepared in DMSO at 10 mM. From […] These solutions were then shaken at 1100 rpm for 2 hours at 25°C. Following incubation, the samples were filtered using a vacuum manifold. The filtrate was analysed and quantified against a standard of known concentration using liquid chromatography mass- spectrometry (LC-MS/MS). Samples were analysed using a Shimadzu Nexera LC Binary Gradient LC-30AD (Shimadzu Inc, Kyoto), coupled to a Sciex 4500 mass spectrometer (AB Inc., Illinois). Separation of […] Wilmslow) at a temperature of 40°C and a binary mobile phase gradient at a flow rate of 0.8 mL/min. […] This was ramped to 98% solvent B at 0.5 minutes, held for 0.4 minutes and then immediately returned to initial conditions. Sample analysis was by electrospray ionisation combined with multiple reaction monitoring in positive ion mode. The ionspray voltage was […]. 10

SMILES | Papp B→A at 2 h, 5 µM [1] [×10⁻⁶ cm/s] | recovery at 2 h, 5 µM ([1]; read-out: Recovery (%) AP-BL) [%] | recovery at 2 h, 5 µM ([1]; read-out: Recovery (%) BL-AP) [%] | Papp A→B at 2 h, 5 µM ([1]; Caco-2, pH 7.4) [×10⁻⁶ cm/s] | GI50 [2] [µM] | GI50 [3] [µM] | GI50 (RPE-1 cells) [µM] | other results
COCCc1ccc(OCC(O)CNC(C)C)cc1 (centres unmarked) [Metoprolol] | 26.4 | 108 | 99 | 28.4 | – | – | – | efflux ratio at 2 h, 5 µM ([1]; Caco-2, pH 7.4, Caco-2): 0.93
N.N.[Cl][Pt][Cl] [Cisplatin, cisplatin, reference compound] | – | – | – | – | 10.8 | 1.09 | 6.25 | –
C[C@H]1O[C@@H](O[C@H]2[C@@H](O)C[C@H](O[C@H]3[C@@H](O)C[C@H](O[C@H]4CC[C@@]5(C)[C@H](CC[C@@H]6[C@@H]5C[C@@H](O)[C@]5(C)[C@@H](C7=CC(=O)OC7)CC[C@]65O)C4)O[C@@H]3C)O[C@@H]2C)C[C@H](O)[C@@H]1O [Digoxin] | 18.7 | 95.9 | 99.2 | 0.42 | – | – | – | efflux ratio at 2 h, 5 µM ([1]; Caco-2, pH 7.4): 45.6
CC(=O)N1CCN(c2ccc(OCC3COC(Cn4ccnc4)(c4ccc(Cl)cc4Cl)O3)cc2)CC1 (centres unmarked) [Ketoconazole, reference compound] | – | – | – | – | – | – | – | recovery at 6 h, 5 µM [4]: 96.6%
CCCC[N+](CCCC)(CCCC)CCCC [TBACl, reference compound] | – | – | – | – | 219 | 114 | 532 | –
